# Test results from ChEMBL document CHEMBL1201862, “PubChem BioAssay data set” (2004).
# Active and inactive are the calls of the source.
# What was measured:
# Coagulation factor XII = target: T1, Coagulation factor XII (Homo sapiens, UniProt P00748); type: functional;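 further: activated factor XIIa alpha cleaving a fluorogenic AMC peptide substrate; inhibitor potency from loss of enzyme activity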
# T1 sequence (P00748 whole entry): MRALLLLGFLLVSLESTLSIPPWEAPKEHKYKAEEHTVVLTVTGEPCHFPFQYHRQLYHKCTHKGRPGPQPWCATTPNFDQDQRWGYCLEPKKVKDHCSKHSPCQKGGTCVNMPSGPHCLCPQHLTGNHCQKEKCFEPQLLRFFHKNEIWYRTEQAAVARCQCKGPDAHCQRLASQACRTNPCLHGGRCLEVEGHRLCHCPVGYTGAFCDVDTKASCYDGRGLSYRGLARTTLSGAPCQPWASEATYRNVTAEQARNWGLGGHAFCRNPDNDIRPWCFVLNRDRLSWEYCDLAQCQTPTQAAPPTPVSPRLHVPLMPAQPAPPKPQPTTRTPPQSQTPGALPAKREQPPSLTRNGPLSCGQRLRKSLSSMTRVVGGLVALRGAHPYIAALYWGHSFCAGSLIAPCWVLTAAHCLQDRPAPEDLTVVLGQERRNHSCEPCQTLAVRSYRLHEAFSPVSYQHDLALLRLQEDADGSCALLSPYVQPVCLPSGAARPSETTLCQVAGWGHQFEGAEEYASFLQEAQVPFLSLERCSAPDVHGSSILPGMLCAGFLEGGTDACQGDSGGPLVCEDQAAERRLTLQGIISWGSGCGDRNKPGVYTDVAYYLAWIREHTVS
# [1] = target: T2, Long-chain-fatty-acid--AMP ligase FadD28 (Mycobacterium tuberculosis, UniProt P9WQ59); assay: Fluorescence polarization aasay to screen for inhibitors that compete for the binding of FadD28 to a bisubstrate Measured in Biochemical System Using Plate Reader - 2147-01_Inhibitor_Dose_CherryPick_Activity.; type: functional, Mycobacterium tuberculosis H37Rv
# T2 sequence (P9WQ59 whole entry): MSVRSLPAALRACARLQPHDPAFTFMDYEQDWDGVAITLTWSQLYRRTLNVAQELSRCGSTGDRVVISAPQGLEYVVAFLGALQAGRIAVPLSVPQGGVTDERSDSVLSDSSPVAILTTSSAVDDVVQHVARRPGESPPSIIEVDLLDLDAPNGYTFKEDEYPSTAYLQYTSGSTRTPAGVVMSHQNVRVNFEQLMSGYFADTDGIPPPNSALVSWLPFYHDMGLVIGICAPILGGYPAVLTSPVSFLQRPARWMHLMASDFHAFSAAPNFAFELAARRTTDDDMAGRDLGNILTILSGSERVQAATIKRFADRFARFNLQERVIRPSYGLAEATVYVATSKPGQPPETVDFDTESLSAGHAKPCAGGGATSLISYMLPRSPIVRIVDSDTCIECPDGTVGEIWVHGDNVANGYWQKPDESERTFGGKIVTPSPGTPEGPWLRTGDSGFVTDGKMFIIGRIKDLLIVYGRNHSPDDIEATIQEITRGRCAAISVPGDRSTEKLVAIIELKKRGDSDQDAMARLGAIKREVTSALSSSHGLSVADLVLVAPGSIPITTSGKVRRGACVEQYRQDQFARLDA
# [2] = target: DNA dC->dU-editing enzyme APOBEC-3A (Homo sapiens, UniProt P31941); assay: APOBEC3A DNA deaminase inhibitors, dose response, biochemical (AID 504722); type: functional
# Chain of DNA dC->dU-editing enzyme APOBEC-3A (P31941 whole entry): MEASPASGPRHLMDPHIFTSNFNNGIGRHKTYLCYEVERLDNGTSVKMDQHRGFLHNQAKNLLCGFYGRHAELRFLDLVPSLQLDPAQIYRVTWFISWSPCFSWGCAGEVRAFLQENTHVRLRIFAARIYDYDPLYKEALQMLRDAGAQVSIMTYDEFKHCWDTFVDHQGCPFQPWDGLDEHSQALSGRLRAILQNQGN
# [3] = target: Eukaryotic translation initiation factor 4E (Mus musculus, UniProt P63073); assay: eIF4E–eIF4G protein interaction inhibitors, dose response, biochemical, TR-FRET (AID 855); type: functional;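 further: potency for disrupting eIF4E binding to eIF4GI seen as loss of FRET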
# Chain of Eukaryotic translation initiation factor 4E (P63073 whole entry): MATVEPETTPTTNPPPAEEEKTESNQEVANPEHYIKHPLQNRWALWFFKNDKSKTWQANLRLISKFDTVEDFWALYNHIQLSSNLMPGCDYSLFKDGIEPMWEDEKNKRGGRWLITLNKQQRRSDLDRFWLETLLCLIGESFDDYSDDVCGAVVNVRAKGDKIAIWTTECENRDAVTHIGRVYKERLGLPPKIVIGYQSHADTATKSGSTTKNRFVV
# [4] = target: T3, Rac GTPase-activating protein 1 (Homo sapiens, UniProt Q9H0H5); assay: MgcRacGAP GTPase-activating activity inhibitors, confirmation, biochemical, ADP Hunter fluorescence, primary and confirmatory (AID 624330); type: functional
# T3 sequence (Q9H0H5 whole entry): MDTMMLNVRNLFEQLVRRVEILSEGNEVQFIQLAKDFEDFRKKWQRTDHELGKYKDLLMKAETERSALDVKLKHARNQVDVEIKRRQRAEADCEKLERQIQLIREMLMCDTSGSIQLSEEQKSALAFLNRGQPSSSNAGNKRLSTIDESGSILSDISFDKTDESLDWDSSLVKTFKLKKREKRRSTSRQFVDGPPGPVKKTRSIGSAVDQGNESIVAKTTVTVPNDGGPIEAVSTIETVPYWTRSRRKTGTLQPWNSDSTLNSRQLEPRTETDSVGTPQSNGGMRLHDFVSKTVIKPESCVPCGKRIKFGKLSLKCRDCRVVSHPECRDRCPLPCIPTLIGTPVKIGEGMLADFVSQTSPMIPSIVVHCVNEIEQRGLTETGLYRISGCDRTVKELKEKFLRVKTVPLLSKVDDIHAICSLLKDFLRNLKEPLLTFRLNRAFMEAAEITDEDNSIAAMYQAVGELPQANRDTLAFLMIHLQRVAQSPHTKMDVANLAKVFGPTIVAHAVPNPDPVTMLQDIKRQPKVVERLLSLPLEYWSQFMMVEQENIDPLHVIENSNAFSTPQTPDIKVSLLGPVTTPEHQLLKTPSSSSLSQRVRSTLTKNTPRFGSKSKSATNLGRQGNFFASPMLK
# [5] = target: DNA dC->dU-editing enzyme APOBEC-3G (Homo sapiens, UniProt Q9HC16); assay: Dose Response confirmation of small molecule APOBEC3G DNA Deaminase Inhibitors via a fluorescence-based single-stranded DNA deaminase assay. [Related pubchem assays (depositor defined):AID493012, AID493028]; type: functional
# Chain of DNA dC->dU-editing enzyme APOBEC-3G (Q9HC16 whole entry): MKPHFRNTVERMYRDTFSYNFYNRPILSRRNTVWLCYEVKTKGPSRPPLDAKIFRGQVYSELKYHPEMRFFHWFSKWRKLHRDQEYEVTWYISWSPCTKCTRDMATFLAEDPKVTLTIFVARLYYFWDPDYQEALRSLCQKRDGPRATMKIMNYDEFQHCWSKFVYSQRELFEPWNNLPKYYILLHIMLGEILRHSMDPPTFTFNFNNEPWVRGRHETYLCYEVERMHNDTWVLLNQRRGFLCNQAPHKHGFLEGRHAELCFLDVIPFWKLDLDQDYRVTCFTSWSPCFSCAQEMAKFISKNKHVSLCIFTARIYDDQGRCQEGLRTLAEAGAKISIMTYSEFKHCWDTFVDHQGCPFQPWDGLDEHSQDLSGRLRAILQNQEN
# [6] = target: T4, Heat shock factor protein 1 (Mus musculus, UniProt P38532); assay: HSF1 potentiators in luciferase reporter cells, confirmation, cell-based, NIH3T3, luminescence, dose retest (AID 435004); type: functional;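 further: stress induced by proteasome inhibitor MG132 added 30 min after compound; luciferase reporter driven by HSF1 response element in NIH3T3 cells; actives raise luminescence as potentiators of the MG132 stress response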
# T4 sequence (P38532 whole entry): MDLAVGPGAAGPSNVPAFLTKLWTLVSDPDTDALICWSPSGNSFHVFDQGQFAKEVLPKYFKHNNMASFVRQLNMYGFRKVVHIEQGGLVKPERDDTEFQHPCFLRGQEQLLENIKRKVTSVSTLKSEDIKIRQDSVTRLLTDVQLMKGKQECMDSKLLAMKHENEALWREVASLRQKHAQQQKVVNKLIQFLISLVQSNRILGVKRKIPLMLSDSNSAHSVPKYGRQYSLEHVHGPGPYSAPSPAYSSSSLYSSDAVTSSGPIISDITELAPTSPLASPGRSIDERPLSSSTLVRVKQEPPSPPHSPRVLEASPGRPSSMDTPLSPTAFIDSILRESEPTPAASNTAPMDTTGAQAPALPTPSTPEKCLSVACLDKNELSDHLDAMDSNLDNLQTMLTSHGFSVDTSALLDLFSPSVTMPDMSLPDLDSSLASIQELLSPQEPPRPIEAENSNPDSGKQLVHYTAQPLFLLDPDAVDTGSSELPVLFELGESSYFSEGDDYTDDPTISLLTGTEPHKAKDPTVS
# [7] = target: Dual specificity tyrosine-phosphorylation-regulated kinase 1A (Rattus norvegicus, UniProt Q63470); type: biochemical, Homo sapiens
# Protein RecA = target: T5, Protein RecA (Mycobacterium tuberculosis, UniProt P9WHJ3); assay: Fluorescence Cell-Free Homogeneous Dose Retest to Identify Inhibitors of RecA-Intein Splicing Activity. [Related pubchem assays (depositor defined):AID2097, AID2223, AID489010, AID492950]; type: functional
# T5 sequence (P9WHJ3 whole entry): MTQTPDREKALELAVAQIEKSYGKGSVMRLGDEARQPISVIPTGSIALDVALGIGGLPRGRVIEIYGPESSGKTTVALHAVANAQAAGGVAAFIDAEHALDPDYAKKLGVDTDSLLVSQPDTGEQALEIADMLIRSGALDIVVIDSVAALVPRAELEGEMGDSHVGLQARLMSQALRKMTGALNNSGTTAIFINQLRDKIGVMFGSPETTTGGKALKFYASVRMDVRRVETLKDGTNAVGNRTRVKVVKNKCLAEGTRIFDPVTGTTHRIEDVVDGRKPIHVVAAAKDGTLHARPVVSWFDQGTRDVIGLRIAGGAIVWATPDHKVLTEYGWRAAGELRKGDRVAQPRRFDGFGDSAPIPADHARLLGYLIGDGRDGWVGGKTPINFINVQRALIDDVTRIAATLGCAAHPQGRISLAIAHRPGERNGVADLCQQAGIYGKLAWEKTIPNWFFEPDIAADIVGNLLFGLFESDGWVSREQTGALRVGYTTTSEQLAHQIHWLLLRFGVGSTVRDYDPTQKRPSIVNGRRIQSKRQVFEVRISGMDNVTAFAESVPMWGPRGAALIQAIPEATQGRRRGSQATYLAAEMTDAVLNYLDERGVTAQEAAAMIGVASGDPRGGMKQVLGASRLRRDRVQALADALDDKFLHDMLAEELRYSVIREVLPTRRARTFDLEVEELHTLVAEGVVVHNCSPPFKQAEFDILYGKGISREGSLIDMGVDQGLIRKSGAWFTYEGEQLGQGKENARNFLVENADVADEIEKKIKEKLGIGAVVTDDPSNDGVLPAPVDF
# [8] = target: T6, Replicative DNA helicase DnaB (Mycobacterium tuberculosis, UniProt P9WMR3); assay: DnaB intein splicing inhibitors, dose response, biochemical, cell-free fluorescence (AID 449749); type: functional
# T6 sequence (P9WMR3 whole entry): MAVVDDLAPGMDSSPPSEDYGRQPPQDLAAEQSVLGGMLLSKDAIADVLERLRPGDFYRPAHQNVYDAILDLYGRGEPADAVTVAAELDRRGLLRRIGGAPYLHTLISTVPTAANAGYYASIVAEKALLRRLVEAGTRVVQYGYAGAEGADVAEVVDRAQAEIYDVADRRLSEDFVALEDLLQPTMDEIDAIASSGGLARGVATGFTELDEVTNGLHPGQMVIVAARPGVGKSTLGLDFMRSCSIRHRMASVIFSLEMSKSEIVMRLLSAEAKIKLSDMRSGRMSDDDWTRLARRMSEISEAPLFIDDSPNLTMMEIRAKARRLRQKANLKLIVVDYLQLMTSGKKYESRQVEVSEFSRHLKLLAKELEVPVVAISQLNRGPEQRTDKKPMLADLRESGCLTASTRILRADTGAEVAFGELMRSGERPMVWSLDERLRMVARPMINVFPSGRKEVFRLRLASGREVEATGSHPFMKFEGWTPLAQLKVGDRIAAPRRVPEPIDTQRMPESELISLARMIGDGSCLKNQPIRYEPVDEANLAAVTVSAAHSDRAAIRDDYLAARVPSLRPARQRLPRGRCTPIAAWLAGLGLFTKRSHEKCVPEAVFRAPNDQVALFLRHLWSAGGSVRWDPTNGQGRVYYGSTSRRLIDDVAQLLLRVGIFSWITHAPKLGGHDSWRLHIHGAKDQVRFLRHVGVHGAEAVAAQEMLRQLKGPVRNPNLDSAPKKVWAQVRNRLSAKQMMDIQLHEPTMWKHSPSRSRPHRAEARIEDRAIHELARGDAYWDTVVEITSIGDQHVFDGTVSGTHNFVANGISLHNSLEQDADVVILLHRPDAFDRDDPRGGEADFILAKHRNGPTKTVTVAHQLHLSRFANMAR
# Nonstructural protein 1 = Nonstructural protein 1 (Influenza A virus, UniProt Q194T2); type: functional, Influenza A virus (A/California/07/2009(H1N1))
# Chain of Nonstructural protein 1 (Q194T2 whole entry): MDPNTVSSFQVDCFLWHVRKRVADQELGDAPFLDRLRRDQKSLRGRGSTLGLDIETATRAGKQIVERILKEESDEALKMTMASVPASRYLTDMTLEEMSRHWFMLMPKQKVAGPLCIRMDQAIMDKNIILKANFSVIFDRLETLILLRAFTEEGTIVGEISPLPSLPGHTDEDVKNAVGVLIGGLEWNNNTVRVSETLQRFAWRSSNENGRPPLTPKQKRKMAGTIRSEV
# Bcl-2-like protein 10 = target: T7, Bcl-2-like protein 10 (Homo sapiens, UniProt Q9HD36); assay: displacers of TR3 peptide from Bcl-B, primary screen, selectivity assay for Bfl-1 inhibitor project, biochemical, fluorescence polarization, FITC-TR3 peptide (AID 748);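 further: fluorescence polarization from a fluorescein-labelled TR3 peptide binding purified Bcl-B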
# T7 sequence (Q9HD36 whole entry): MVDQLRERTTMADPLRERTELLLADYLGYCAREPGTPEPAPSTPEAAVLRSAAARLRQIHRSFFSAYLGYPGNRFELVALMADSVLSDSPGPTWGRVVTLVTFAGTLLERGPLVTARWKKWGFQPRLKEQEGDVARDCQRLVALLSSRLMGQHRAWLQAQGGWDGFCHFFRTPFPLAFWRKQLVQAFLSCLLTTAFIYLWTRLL
# Estrogen receptor beta [9] = target: T8, Estrogen receptor beta (Homo sapiens, UniProt Q92731); assay: ERβ–SRC-3 coactivator interaction inhibitors, confirmation, orthogonal assay, biochemical, ELISA, streptavidin-HRP readout (AID 1060)
# T8 sequence (Q92731 whole entry): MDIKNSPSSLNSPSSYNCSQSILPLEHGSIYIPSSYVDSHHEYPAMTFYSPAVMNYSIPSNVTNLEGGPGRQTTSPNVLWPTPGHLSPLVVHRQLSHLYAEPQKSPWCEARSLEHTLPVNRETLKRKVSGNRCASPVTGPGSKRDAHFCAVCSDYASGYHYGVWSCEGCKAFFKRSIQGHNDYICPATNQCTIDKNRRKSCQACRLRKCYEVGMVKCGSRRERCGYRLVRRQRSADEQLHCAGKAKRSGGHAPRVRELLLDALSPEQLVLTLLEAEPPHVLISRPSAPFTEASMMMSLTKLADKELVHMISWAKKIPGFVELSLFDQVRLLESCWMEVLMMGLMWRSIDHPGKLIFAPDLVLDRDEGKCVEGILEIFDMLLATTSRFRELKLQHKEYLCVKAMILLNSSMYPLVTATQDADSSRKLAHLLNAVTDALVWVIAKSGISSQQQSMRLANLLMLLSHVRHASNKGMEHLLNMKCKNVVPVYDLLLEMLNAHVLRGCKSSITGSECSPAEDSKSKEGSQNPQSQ
# Estrogen receptor beta [10] = target: T8, Estrogen receptor beta
# Trypsin = Trypsin (Sus scrofa, UniProt P00761); assay: porcine trypsin inhibitors, dose response, selectivity assay for Rce1 protease inhibitor project, biochemical, quenched peptide fluorescence, cherry-pick (AID 488789)
# Chain of Trypsin (P00761 whole entry): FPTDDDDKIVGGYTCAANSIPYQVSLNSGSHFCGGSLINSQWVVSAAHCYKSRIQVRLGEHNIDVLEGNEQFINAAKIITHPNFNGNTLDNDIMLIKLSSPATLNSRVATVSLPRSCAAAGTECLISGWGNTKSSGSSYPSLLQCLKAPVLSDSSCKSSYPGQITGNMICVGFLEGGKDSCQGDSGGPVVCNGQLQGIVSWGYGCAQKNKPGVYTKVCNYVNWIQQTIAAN
# [11] = target: Peroxisome proliferator-activated receptor gamma/Nuclear receptor coactivator 2 (Homo sapiens, UniProt P37231); type: functional;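 further: agonist potency for raising coactivator recruitment to the receptor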
# [12] = target: Peroxisome proliferator-activated receptor gamma/Nuclear receptor coactivator 3 (Homo sapiens, UniProt P37231); type: functional;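 further: agonist potency for raising coactivator recruitment to the receptor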
# Chain of Peroxisome proliferator-activated receptor gamma/Nuclear receptor coactivator 3 (P37231 whole entry): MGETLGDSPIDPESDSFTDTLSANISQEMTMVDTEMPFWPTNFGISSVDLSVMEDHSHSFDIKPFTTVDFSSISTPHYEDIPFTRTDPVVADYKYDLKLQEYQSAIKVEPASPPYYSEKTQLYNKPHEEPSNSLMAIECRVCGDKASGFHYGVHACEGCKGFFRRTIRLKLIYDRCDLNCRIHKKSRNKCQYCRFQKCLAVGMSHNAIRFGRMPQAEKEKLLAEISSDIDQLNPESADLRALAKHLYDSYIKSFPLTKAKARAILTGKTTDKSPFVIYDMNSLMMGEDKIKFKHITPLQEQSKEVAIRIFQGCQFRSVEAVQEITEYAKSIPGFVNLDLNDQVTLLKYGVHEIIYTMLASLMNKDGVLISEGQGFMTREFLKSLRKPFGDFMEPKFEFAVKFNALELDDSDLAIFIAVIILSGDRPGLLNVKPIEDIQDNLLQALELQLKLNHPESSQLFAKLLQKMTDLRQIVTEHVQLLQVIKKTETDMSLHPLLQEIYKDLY
# Chain of Peroxisome proliferator-activated receptor gamma/Nuclear receptor coactivator 3 (Q9Y6Q9 whole entry, further chain): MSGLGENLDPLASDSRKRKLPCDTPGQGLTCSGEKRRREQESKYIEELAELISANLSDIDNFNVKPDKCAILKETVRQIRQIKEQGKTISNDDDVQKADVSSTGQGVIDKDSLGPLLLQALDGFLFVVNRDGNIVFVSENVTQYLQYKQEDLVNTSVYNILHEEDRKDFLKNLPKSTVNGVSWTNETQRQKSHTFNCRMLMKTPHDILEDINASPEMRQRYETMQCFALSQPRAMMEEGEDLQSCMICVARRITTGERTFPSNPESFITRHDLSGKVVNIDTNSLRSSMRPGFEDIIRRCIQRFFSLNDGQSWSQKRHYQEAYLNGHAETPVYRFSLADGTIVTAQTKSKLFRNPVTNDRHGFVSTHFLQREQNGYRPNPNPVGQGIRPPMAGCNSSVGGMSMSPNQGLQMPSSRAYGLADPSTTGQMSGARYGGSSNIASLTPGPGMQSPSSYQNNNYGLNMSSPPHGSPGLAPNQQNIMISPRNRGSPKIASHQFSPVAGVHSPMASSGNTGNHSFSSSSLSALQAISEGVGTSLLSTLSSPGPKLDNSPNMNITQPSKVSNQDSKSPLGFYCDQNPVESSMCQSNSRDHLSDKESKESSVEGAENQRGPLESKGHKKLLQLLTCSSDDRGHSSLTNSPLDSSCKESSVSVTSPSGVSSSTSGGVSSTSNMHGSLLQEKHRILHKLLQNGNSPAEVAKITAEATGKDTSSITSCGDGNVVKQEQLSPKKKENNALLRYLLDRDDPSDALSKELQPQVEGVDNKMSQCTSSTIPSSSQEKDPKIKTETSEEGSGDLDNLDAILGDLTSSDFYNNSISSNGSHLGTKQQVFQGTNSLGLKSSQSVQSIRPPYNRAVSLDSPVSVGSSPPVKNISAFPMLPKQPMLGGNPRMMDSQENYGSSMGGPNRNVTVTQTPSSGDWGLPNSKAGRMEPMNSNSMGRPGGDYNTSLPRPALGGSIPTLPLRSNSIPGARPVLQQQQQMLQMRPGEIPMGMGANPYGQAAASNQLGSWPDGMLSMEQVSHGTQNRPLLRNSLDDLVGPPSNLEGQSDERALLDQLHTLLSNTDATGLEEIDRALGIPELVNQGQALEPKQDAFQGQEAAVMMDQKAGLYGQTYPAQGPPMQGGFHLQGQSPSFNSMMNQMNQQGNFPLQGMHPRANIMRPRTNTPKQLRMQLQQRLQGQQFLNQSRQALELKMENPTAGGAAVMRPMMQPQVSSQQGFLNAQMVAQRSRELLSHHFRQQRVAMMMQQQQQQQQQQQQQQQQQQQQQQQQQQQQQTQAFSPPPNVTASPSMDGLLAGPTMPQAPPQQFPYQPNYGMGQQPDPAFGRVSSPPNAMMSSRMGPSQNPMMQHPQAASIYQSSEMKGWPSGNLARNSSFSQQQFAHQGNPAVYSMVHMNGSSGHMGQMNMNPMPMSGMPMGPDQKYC
# [13] = target: Peroxisome proliferator-activated receptor gamma/Nuclear receptor coactivator 1 (Homo sapiens, UniProt P37231); type: functional;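 further: agonist potency as compounds enhance coactivator SRC-1 recruitment to PPARgamma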
smiles,measurement,setting,value
Cc1ccc(C2=NN(S(=O)(=O)c3ccccc3)C(c3ccccc3O)C2)cc1 (stereo not given),IC50,Coagulation factor XII,> 50 µM (inactive)
same,AC50,[1],> 100 µM (inactive)
CCn1c(=O)c2c3c(sc2n2c(=S)[nH]nc12)CCC3,IC50,[2],> 100 µM (inactive)
same,IC50,[3],> 64 µM (inactive)
same,IC50,[4],26.4 µM (active)
same,IC50,[5],4.78 µM (active)
CCOc1ccc(N(CC(=O)Nc2ccc3c(c2)OCCO3)S(=O)(=O)c2c(C)noc2C)cc1,IC50,Coagulation factor XII,> 50 µM (inactive)
O=C1c2ccccc2-c2onc3ccc(N4CCCC4)c1c23,EC50,[6],> 260 µM (inactive)
same,IC50,[3],50 µM (inactive)
same,AC50,[7],1.67 µM (active)
same,EC50,Protein RecA,0.606 µM (active)
same,AC50,[8],> 380 µM (inactive)
same,AC50,[1],15.1 µM (active)
same,IC50,Nonstructural protein 1,23.6 µM (active)
COCc1cc(C2SCC(=O)Nc3c2c(O)nn3C(C)C)ccc1OC (stereo not given),IC50,Bcl-2-like protein 10,> 100 µM (inactive)
CC(=O)Nc1ccc(OC(=O)CC2SC(=O)NC2=O)cc1 (stereo not given),IC50,Bcl-2-like protein 10,> 100 µM (inactive)
same,IC50,Estrogen receptor beta [9],< 0.023 µM (not active)
same,IC50,Estrogen receptor beta [10],8.53 µM (active)
O=C(COC(=O)COc1ccccc1Cl)Nc1ccccc1OC(F)F,IC50,Coagulation factor XII,> 50 µM (inactive)
COc1ccc2oc(-c3ccccc3)c(C(=O)N3CCOCC3)c2c1,AC50,Trypsin,4.55 µM (active)
CC(C)(C)c1cc(C(=S)N2CCN(CCO)CC2)cc(C(C)(C)C)c1O,IC50,[2],> 100 µM (inactive)
same,EC50,[11],> 79.4 µM (not active)
same,IC50,[5],13.4 µM (active)
same,EC50,[12],> 79.4 µM (not active)
same,EC50,[13],> 79.4 µM (not active)
